Source: patent publication US11000033B2, “Ketone or oxime compound, and herbicide” (NISSAN CHEMICAL CORPORATION, priority 2014, dated 2021)

Experiments:
Type in all cases: in vivo
Avena fatua [1] = assay: Test Example 4: herbicidal effect by soil treatment (symbol I); conditions: application herbicide amount 320 g/ha
Outline: (§1)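 Seeds were sown in sterilized diluvial soil, covered with about 1.5 cm of soil, and the soil surface was sprayed with a water-diluted emulsion of the compound at a predetermined rate. Plants grew in a greenhouse at 25° C. to 30° C.; effects were scored visually 3 weeks after application.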

Abutilon theophrasti = assay: Test Example 5: herbicidal effect by foliage application, plastic box (symbol M); conditions: 320 g/ha, 3 weeks after application
Outline: (§2)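 Seeds were sown in sterilized diluvial soil, covered with about 1.5 cm of soil and grown 14 days in a greenhouse at 25° C. to 30° C. An emulsifiable formulation diluted in water to a set rate was sprayed over foliage, and injury was scored 3 weeks later.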

[2] = tested on: Echinochloa crus-galli var. crus-galli; assay: Test Example 4: herbicidal effect by soil treatment (symbol H); conditions: application herbicide amount 320 g/ha
Outline: as §1

Digitaria ciliaris [3] = assay: Test Example 5: herbicidal effect by foliage application, plastic box (symbol F); conditions: 320 g/ha, 3 weeks after application
Outline: as §2

Avena fatua [4] = assay: Test Example 5: herbicidal effect by foliage application, plastic box (symbol I); conditions: 320 g/ha, 3 weeks after application
Outline: as §2

Chenopodium album = assay: Test Example 5: herbicidal effect by foliage application, plastic box (symbol O); conditions: 320 g/ha, 3 weeks after application
Outline: as §2

Apera spica-venti [5] = assay: Test Example 4: herbicidal effect by soil treatment (symbol L); conditions: application herbicide amount 320 g/ha
Outline: as §1

Apera spica-venti [6] = assay: Test Example 5: herbicidal effect by foliage application, plastic box (symbol L); conditions: 320 g/ha, 3 weeks after application
Outline: as §2

Veronica persica = assay: Test Example 5: herbicidal effect by foliage application, plastic box (symbol R); conditions: 320 g/ha, 3 weeks after application
Outline: as §2

wheat = assay: Test Example 5: effect on crop by foliage application, plastic box (symbol e); conditions: 320 g/ha, 3 weeks after application
Outline: (§3)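 Soil: sterilized diluvial. Container: plastic box, 21 × 13 cm, 7 cm deep. Sowing: spot-like, ~1.5 cm cover. Growth: greenhouse, 25° C. to 30° C.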

[7] = tested on: directly sowed rice plant; assay: Test Example 3: effect on crop by foliage application, Wagner pot (symbol b); conditions: application herbicide amount 320 g/ha
Outline: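 Alluvial soil in a 1/10000-are Wagner pot was flooded to a water depth of 0.1–0.5 cm. Echinochloa crus-galli var. crus-galli, Leptochloa chinensis, Cyperus difformis and rice were sown into it and grown in a greenhouse at 25–30 °C.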

Monochoria vaginalis = assay: Test Example 2: herbicidal activity, application during weed generation in submerged conditions (symbol C); conditions: Table 23; application herbicide amount 320 g/ha; grade 0-5 by criteria of Test Example 1
Outline: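 Visual herbicidal ratings, taken three weeks after dosing, reflect post-emergence water-surface application to seedlings at one to two leaves. Conditions: co-sown weeds in alluvial soil flooded to 4 cm, greenhouse held at 25° C. to 30° C.; compound given as water-diluted emulsion at a fixed herbicide amount.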

beet = assay: Test Example 4: effect on crop by soil treatment (symbol f); conditions: application herbicide amount 320 g/ha
Outline: (§4)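 Seeds were sown in spots on sterilized diluvial soil in a plastic box and covered with about 1.5 cm of soil. Plants were then grown in a greenhouse at 25° C. to 30° C.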

Lolium multiflorum Lam. [8] = assay: Test Example 5: herbicidal effect by foliage application, plastic box (symbol K); conditions: 320 g/ha, 3 weeks after application
Outline: as §2

Stellaria media = assay: Test Example 5: herbicidal effect by foliage application, plastic box (symbol P); conditions: 320 g/ha, 3 weeks after application
Outline: as §2

rapeseed [9] = assay: Test Example 4: effect on crop by soil treatment (symbol g); conditions: application herbicide amount 320 g/ha
Outline: as §4

Alopecurus myosuroides = assay: Test Example 4: herbicidal effect by soil treatment (symbol J); conditions: application herbicide amount 320 g/ha
Outline: as §1

rapeseed [10] = assay: Test Example 5: effect on crop by foliage application, plastic box (symbol g); conditions: 320 g/ha, 3 weeks after application
Outline: as §3

rice = assay: Test Example 4: effect on crop by soil treatment (symbol b); conditions: application herbicide amount 320 g/ha
Outline: as §4

Lolium multiflorum Lam. [11] = assay: Test Example 4: herbicidal effect by soil treatment (symbol K); conditions: application herbicide amount 320 g/ha
Outline: as §1

Amaranthus retroflexus = assay: Test Example 5: herbicidal effect by foliage application, plastic box (symbol N); conditions: 320 g/ha, 3 weeks after application
Outline: as §2

Digitaria ciliaris [12] = assay: Test Example 4: herbicidal effect by soil treatment (symbol F); conditions: application herbicide amount 320 g/ha
Outline: as §1

CON=C(C)C(=O)C1CC(O)=C(c2c(C)cc(C)cc2C)C1=O (centres unmarked) [8-002]
Herbicidal effect grade, I: Avena fatua (Avena fatua [1]): 0 (Herbicidal ratio of 5% or lower (almost no effect)) | M: Abutilon theophrasti, herbicidal effect grade (Abutilon theophrasti): 0 (Herbicidal ratio of 5% or lower (almost no effect)) | Herbicidal effect grade, H: Echinochloa crus-galli var. crus-galli [2]: 2 (Herbicidal ratio of 20% or higher and lower than 40%) | F: Digitaria ciliaris, herbicidal effect grade (Digitaria ciliaris [3]): 0 (Herbicidal ratio of 5% or lower (almost no effect)) | I: Avena fatua, herbicidal effect grade (Avena fatua [4]): 3 (Herbicidal ratio of 40% or higher and lower than 70%) | O: Chenopodium album, herbicidal effect grade (Chenopodium album): 0 (Herbicidal ratio of 5% or lower (almost no effect)) | Herbicidal effect grade, L: Apera spica-venti (Apera spica-venti [5]): 0 (Herbicidal ratio of 5% or lower (almost no effect)) | L: Apera spica-venti, herbicidal effect grade (Apera spica-venti [6]): 3 (Herbicidal ratio of 40% or higher and lower than 70%) | R: Veronica persica, herbicidal effect grade (Veronica persica): 0 (Herbicidal ratio of 5% or lower (almost no effect)) | e: wheat, effect on crop grade (wheat): 0 (Herbicidal ratio of 5% or lower (almost no effect)) | b (directly sowed rice plant) effect on crop grade ([7]; Table 24): 0 (Herbicidal ratio of 5% or lower (almost no effect)) | Herbicidal effect grade, C: Monochoria vaginalis (Monochoria vaginalis): 0 (Herbicidal ratio of 5% or lower (almost no effect)) | Effect on crop grade, f: beet (beet): 0 (Herbicidal ratio of 5% or lower (almost no effect)) | K: Lolium multiflorum Lam., herbicidal effect grade (Lolium multiflorum Lam. [8]): 5 (Herbicidal ratio of 90% or more (almost completely withered)) | P: Stellaria media, herbicidal effect grade (Stellaria media): 0 (Herbicidal ratio of 5% or lower (almost no effect)) | Effect on crop grade, g: rapeseed (rapeseed [9]): 0 (Herbicidal ratio of 5% or lower (almost no effect)) | Herbicidal effect grade, J: Alopecurus myosuroides (Alopecurus myosuroides): 0 (Herbicidal ratio of 5% or lower (almost no effect)) | g: rapeseed, effect on crop grade (rapeseed [10]): 1 (Herbicidal ratio of 5% or higher and lower than 20%) | Effect on crop grade, b: directly sowed rice plant (rice): 0 (Herbicidal ratio of 5% or lower (almost no effect)) | Herbicidal effect grade, K: Lolium multiflorum Lam. (Lolium multiflorum Lam. [11]): 0 (Herbicidal ratio of 5% or lower (almost no effect)) | N: Amaranthus retroflexus, herbicidal effect grade (Amaranthus retroflexus): 0 (Herbicidal ratio of 5% or lower (almost no effect)) | Herbicidal effect grade, F: Digitaria ciliaris (Digitaria ciliaris [12]): 3 (Herbicidal ratio of 40% or higher and lower than 70%)

CC(=O)CC1CC(O)=C(c2c(C)cc(-c3ccccn3)cc2C)C1=O (centres unmarked) [7-012]
Herbicidal effect grade, I: Avena fatua (Avena fatua [1]): 0 (Herbicidal ratio of 5% or lower (almost no effect)) | M: Abutilon theophrasti, herbicidal effect (criteria of Test Example 1) (Abutilon theophrasti): 0 (Herbicidal ratio of 5% or lower (almost no effect)) | Herbicidal effect grade, H: Echinochloa crus-galli var. crus-galli [2]: 5 (Herbicidal ratio of 90% or more (almost completely withered)) | F: Digitaria ciliaris, herbicidal effect (criteria of Test Example 1) (Digitaria ciliaris [3]): 5 (Herbicidal ratio of 90% or more (almost completely withered)) | I: Avena fatua, herbicidal effect (criteria of Test Example 1) (Avena fatua [4]): 1 (Herbicidal ratio of 5% or higher and lower than 20%) | O: Chenopodium album, herbicidal effect (criteria of Test Example 1) (Chenopodium album): 3 (Herbicidal ratio of 40% or higher and lower than 70%) | Herbicidal effect grade, L: Apera spica-venti (Apera spica-venti [5]): 0 (Herbicidal ratio of 5% or lower (almost no effect)) | L: Apera spica-venti, herbicidal effect (criteria of Test Example 1) (Apera spica-venti [6]): 0 (Herbicidal ratio of 5% or lower (almost no effect)) | R: Veronica persica, herbicidal effect (criteria of Test Example 1) (Veronica persica): 2 (Herbicidal ratio of 20% or higher and lower than 40%) | e: wheat, effect on crop (criteria of Test Example 1) (wheat): 1 (Herbicidal ratio of 5% or higher and lower than 20%) | effect on crop b (directly sowed rice plant), grade 0-5 [7]: 5 (Herbicidal ratio of 90% or more (almost completely withered)) | Herbicidal effect grade, C: Monochoria vaginalis (Monochoria vaginalis): 0 (Herbicidal ratio of 5% or lower (almost no effect)) | Effect on crop grade, f: beet (beet): 0 (Herbicidal ratio of 5% or lower (almost no effect)) | K: Lolium multiflorum Lam., herbicidal effect (criteria of Test Example 1) (Lolium multiflorum Lam. [8]): 5 (Herbicidal ratio of 90% or more (almost completely withered)) | P: Stellaria media, herbicidal effect (criteria of Test Example 1) (Stellaria media): 3 (Herbicidal ratio of 40% or higher and lower than 70%) | Effect on crop grade, g: rapeseed (rapeseed [9]): 0 (Herbicidal ratio of 5% or lower (almost no effect)) | Herbicidal effect grade, J: Alopecurus myosuroides (Alopecurus myosuroides): 2 (Herbicidal ratio of 20% or higher and lower than 40%) | g: rapeseed, effect on crop (criteria of Test Example 1) (rapeseed [10]): 3 (Herbicidal ratio of 40% or higher and lower than 70%) | Effect on crop grade, b: directly sowed rice plant (rice): 5 (Herbicidal ratio of 90% or more (almost completely withered)) | Herbicidal effect grade, K: Lolium multiflorum Lam. (Lolium multiflorum Lam. [11]): 2 (Herbicidal ratio of 20% or higher and lower than 40%) | N: Amaranthus retroflexus, herbicidal effect (criteria of Test Example 1) (Amaranthus retroflexus): 0 (Herbicidal ratio of 5% or lower (almost no effect)) | Herbicidal effect grade, F: Digitaria ciliaris (Digitaria ciliaris [12]): 5 (Herbicidal ratio of 90% or more (almost completely withered))

CON=C(C)CC1CC(OC(=O)C(C)(C)Oc2ccccc2)=C(c2c(C)cc(C)cc2C)C1=O (centres unmarked) [1-017]
I (Avena fatua) herbicidal effect grade (Avena fatua [1]): 5 (Herbicidal ratio of 90% or more (almost completely withered)) | M: Abutilon theophrasti, herbicidal effect grade (Abutilon theophrasti): 4 (Herbicidal ratio of 70% or higher and lower than 90%) | H (Echinochloa crus-galli var. crus-galli) herbicidal effect grade [2]: 5 (Herbicidal ratio of 90% or more (almost completely withered)) | F: Digitaria ciliaris, herbicidal effect grade (Digitaria ciliaris [3]): 5 (Herbicidal ratio of 90% or more (almost completely withered)) | I: Avena fatua, herbicidal effect grade (Avena fatua [4]): 5 (Herbicidal ratio of 90% or more (almost completely withered)) | O: Chenopodium album, herbicidal effect grade (Chenopodium album): 2 (Herbicidal ratio of 20% or higher and lower than 40%) | L (Apera spica-venti) herbicidal effect grade (Apera spica-venti [5]): 5 (Herbicidal ratio of 90% or more (almost completely withered)) | L: Apera spica-venti, herbicidal effect grade (Apera spica-venti [6]): 5 (Herbicidal ratio of 90% or more (almost completely withered)) | R: Veronica persica, herbicidal effect grade (Veronica persica): 3 (Herbicidal ratio of 40% or higher and lower than 70%) | e: wheat, effect on crop grade (wheat): 5 (Herbicidal ratio of 90% or more (almost completely withered)) | effect on crop b (directly sowed rice plant), grade 0-5 [7]: 5 (Herbicidal ratio of 90% or more (almost completely withered)) | Herbicidal effect grade, C: Monochoria vaginalis (Monochoria vaginalis): 3 (Herbicidal ratio of 40% or higher and lower than 70%) | f (beet) effect on crop grade (beet): 0 (Herbicidal ratio of 5% or lower (almost no effect)) | K: Lolium multiflorum Lam., herbicidal effect grade (Lolium multiflorum Lam. [8]): 5 (Herbicidal ratio of 90% or more (almost completely withered)) | g (rapeseed) effect on crop grade (rapeseed [9]): 4 (Herbicidal ratio of 70% or higher and lower than 90%) | J (Alopecurus myosuroides) herbicidal effect grade (Alopecurus myosuroides): 5 (Herbicidal ratio of 90% or more (almost completely withered)) | g: rapeseed, effect on crop grade (rapeseed [10]): 4 (Herbicidal ratio of 70% or higher and lower than 90%) | b (directly sowed rice plant) effect on crop grade (rice): 5 (Herbicidal ratio of 90% or more (almost completely withered)) | K (Lolium multiflorum Lam.) herbicidal effect grade (Lolium multiflorum Lam. [11]): 5 (Herbicidal ratio of 90% or more (almost completely withered)) | N: Amaranthus retroflexus, herbicidal effect grade (Amaranthus retroflexus): 4 (Herbicidal ratio of 70% or higher and lower than 90%) | F (Digitaria ciliaris) herbicidal effect grade (Digitaria ciliaris [12]): 5 (Herbicidal ratio of 90% or more (almost completely withered))
